Source: ChEMBL document CHEMBL4483862, “Open-source discovery of chemical leads for next-generation chemoprotective antimalarials” (2018)

Test system: Plasmodium berghei
Experiment: Luciferase/luciferin-expressing antifolate-resistant parasites were used to infect a culture of HepG2 cells that were pre-incubated with compounds. Infected hepatocytes emit light due to the luciferase reaction. Assay results are presented as the percent inhibition of light emission compared to control. […]
Assay type: functional
Conditions: sporozoite; for IC90: read-out: LUCIFERASE INFECTION ASSAY - IC90
[1] = read-out: LUCIFERASE INFECTION ASSAY - IC50

| Structure (SMILES) | IC90 [µM] | IC50 [1] [µM] | further results |
| --- | --- | --- | --- |
| c1ccc(Cn2c(-c3cccnc3)cc3cnc(Nc4ccc(N5CCOCC5)cc4)cc32)cc1 | 8.6 | – | IC50 (HEPG2TOX_HILL_SLOPE 16.1, HEPG2TOX_R_SQUARED 0.869, PBLUC_HILL_SLOPE 3.82, PBLUC_R_SQUARED 0.619, read-out: LUCIFERASE INFECTION ASSAY - IC50): 4.83 µM |
| COc1cc(/C=C/C(=O)OCC(=O)Nc2cc(Cl)cc(Cl)c2)cc(OC)c1OC | > 10 | > 10 | – |
| Fc1cccc(Cl)c1CSc1nnc(-c2cc(C(F)(F)F)cc(C(F)(F)F)c2)[nH]1 | > 7.24 | – | IC50 (PBLUC_HILL_SLOPE 6.81, PBLUC_R_SQUARED 0.556, read-out: LUCIFERASE INFECTION ASSAY - IC50): > 7.24 µM |
| O=C(Cn1cnc2cc(N3CCOCC3)c([N+](=O)[O-])cc2c1=O)c1ccc(C2CCCCC2)cc1 | > 10 | > 10 | – |
| Cc1ccc2nc(NC(=O)c3cc(F)ccc3C)c(C(=O)NCC(C)C)n2c1 | 3.84 | – | IC50 (HEPG2TOX_HILL_SLOPE 2.69, HEPG2TOX_R_SQUARED 0.883, PBLUC_HILL_SLOPE 9.75, PBLUC_R_SQUARED 0.136, read-out: LUCIFERASE INFECTION ASSAY - IC50): 3.07 µM |
| CCOC(=O)CCc1c(C)[nH]n(-c2nc3ccccc3[nH]2)c1=O | 3.53 | – | IC50 (HEPG2TOX_HILL_SLOPE 1.88, HEPG2TOX_R_SQUARED 0.728, PBLUC_HILL_SLOPE 14.3, PBLUC_R_SQUARED 0.719, read-out: LUCIFERASE INFECTION ASSAY - IC50): 3.03 µM |
| O=C(NC(c1ccccc1)C1CC1)c1cccc(S(=O)(=O)N2CCN(c3ccc(F)cc3)CC2)c1 (centres undefined) | > 10 | – | IC50 (FFLUC_HILL_SLOPE 1.82, FFLUC_R_SQUARED 0.654, PBLUC_HILL_SLOPE 3.16, PBLUC_R_SQUARED 0.76, read-out: LUCIFERASE INFECTION ASSAY - IC50): 7.34 µM |
| Cc1ccc(SCc2ccccc2C(=O)Nc2cc(Cl)ccc2O)cc1 | > 8.6 | > 8.6 | – |
| COCCNC(=O)C1CCN(C(C(=O)c2c[nH]c3ccccc23)c2ccccc2)CC1 (centres undefined) | 4.42 | – | IC50 (PBLUC_HILL_SLOPE 1.13, PBLUC_R_SQUARED 0.77, read-out: LUCIFERASE INFECTION ASSAY - IC50): 0.636 µM |
| CCOC(=O)CCCNC(=O)COC(=O)c1cc(-c2ccco2)nc2ccccc12 | > 10 | > 10 | – |
| COCCNc1nc2cnc(-c3cccc(Oc4ccccc4)c3)cc2n1C | > 10 | – | IC50 (PBLUC_HILL_SLOPE 2.22, PBLUC_R_SQUARED 0.147, read-out: LUCIFERASE INFECTION ASSAY - IC50): 6.81 µM |
| COc1cc(OC)cc(-c2cnc3cnc(-c4cccc(C)c4C)cn23)c1 | 8.63 | – | IC50 (HEPG2TOX_HILL_SLOPE 2.52, HEPG2TOX_R_SQUARED 0.881, PBLUC_HILL_SLOPE 5.04, PBLUC_R_SQUARED 0.463, read-out: LUCIFERASE INFECTION ASSAY - IC50): 5.58 µM |
| C(=N\Nc1nc2ccccc2[nH]1)/c1sc(N2CCCCC2)nc1-c1cccs1 | > 10 | – | IC50 (HEPG2TOX_HILL_SLOPE 5.76, HEPG2TOX_R_SQUARED 0.476, PBLUC_HILL_SLOPE 1.87, PBLUC_R_SQUARED 0.581, read-out: LUCIFERASE INFECTION ASSAY - IC50): 6.38 µM |
| Cc1cc(C(=O)N(C)Cc2nc(=O)c3ccccc3[nH]2)c(C)n1-c1ccccc1F | > 10 | – | IC50 (PBLUC_HILL_SLOPE 1.44, PBLUC_R_SQUARED 0.478, read-out: LUCIFERASE INFECTION ASSAY - IC50): 6.97 µM |
| COc1ccccc1C1CCN(c2ccc([N+](=O)[O-])c(C(F)(F)F)c2)CC1 | > 8.68 | > 8.68 | – |
| CC(C)C(Nc1ccc(S(=O)(=O)N2CCOCC2)cc1[N+](=O)[O-])c1nc2ccccc2[nH]1 (centres undefined) | > 10 | 9.46 | – |
| COc1ccc(NC(=O)c2ccc(NC(=O)c3nc4nccc(C)n4n3)cc2)cc1 | > 10 | > 10 | – |
| Cc1nn2c(nc(Sc3nc4ccccc4o3)c3ccccc32)c1/C=N/NC(=O)c1cccc(S(=O)(=O)N2CCOCC2)c1 | > 10 | > 10 | – |
| C/N=c1\scc(-c2ccc3c(c2)NC(=O)CO3)n1/N=C/c1cc(Br)c(O)c(OC)c1 | 7.81 | – | IC50 (HEPG2TOX_HILL_SLOPE 8.72, HEPG2TOX_R_SQUARED 0.934, PBLUC_HILL_SLOPE 4.3, PBLUC_R_SQUARED 0.314, read-out: LUCIFERASE INFECTION ASSAY - IC50): 4.68 µM |
| FC(F)(F)c1cc(Nc2ncc(-c3ccc4c(c3)OCCCO4)s2)cc(C(F)(F)F)c1 | > 7.17 | 5.2 | – |
| CC(C)CN1C(=O)N(Cc2ccccc2)C2(CCN(C3Cc4ccccc4C3)CC2)C1=O | > 7.65 | – | IC50 (PBLUC_HILL_SLOPE 12.6, PBLUC_R_SQUARED 0.313, read-out: LUCIFERASE INFECTION ASSAY - IC50): 7.2 µM |

| Structure (SMILES) | IC90 [µM] | IC50 [1] [µM] | further results |
| --- | --- | --- | --- |
| CCCCNC(=O)c1c(NC(=O)c2cccc(OC)c2)nc2ccc(C)cn12 | 3.2 | 2.79 | – |
| O=C(Nc1ccc(Cl)cc1)Nc1cc(Cl)sc1Cl | 3.79 | 3.09 | – |
| CNc1nc2cnc(Nc3cccc(Cl)c3)cc2n1-c1cc(OC)c(OC)c(OC)c1 | 4.49 | – | IC50 (PBLUC_HILL_SLOPE 3.01, PBLUC_R_SQUARED 0.505, read-out: LUCIFERASE INFECTION ASSAY - IC50): 2.17 µM |
| Cc1ccc(CCC2CCN(C(=O)CCCNC3=NS(=O)(=O)c4ccccc43)CC2)cc1 | 3.84 | – | IC50 (HEPG2TOX_HILL_SLOPE 10.3, HEPG2TOX_R_SQUARED 0.945, PBLUC_HILL_SLOPE 12.1, PBLUC_R_SQUARED 0.567, read-out: LUCIFERASE INFECTION ASSAY - IC50): 3.2 µM |
| N=C(N)SCc1csc(-c2ccc(Br)cc2)n1 | > 9.05 | > 9.05 | – |
| Cc1noc(C)c1S(=O)(=O)N(C)Cc1ccc(-c2ccc(Cl)cc2)o1 | > 10 | > 10 | – |
| O=C(CN1CC=C(c2c[nH]c3ccccc23)CC1)Nc1ccccc1OC(F)F | > 10 | – | IC50 (HEPG2TOX_HILL_SLOPE 99.6, HEPG2TOX_R_SQUARED 0.512, PBLUC_HILL_SLOPE 10, PBLUC_R_SQUARED 0.0817, read-out: LUCIFERASE INFECTION ASSAY - IC50): > 10 µM |
| CCCCCC(=O)Nc1ccc(C2=Nn3c(Cc4cccc5ccccc45)nnc3SC2)cc1 | > 10 | – | IC50 (HEPG2TOX_HILL_SLOPE 0.272, HEPG2TOX_R_SQUARED 0.219, PBLUC_HILL_SLOPE 1.92, PBLUC_R_SQUARED 0.644, read-out: LUCIFERASE INFECTION ASSAY - IC50): 7.04 µM |
| Cc1cc(C(=O)COn2nnc3ccc(S(=O)(=O)N4CCOCC4)cc32)c(C)n1C | > 10 | > 10 | – |
| Cc1nn(-c2ccc(F)cc2)c(Cl)c1/C=C1\C(=O)Nc2ccccc21 | 4.68 | – | IC50 (HEPG2TOX_HILL_SLOPE 2.09, HEPG2TOX_R_SQUARED 0.992, PBLUC_HILL_SLOPE 1.31, PBLUC_R_SQUARED 0.551, read-out: LUCIFERASE INFECTION ASSAY - IC50): 0.878 µM |
| O=C(Nc1cc(C(F)(F)F)cc(C(F)(F)F)c1)Nc1cnn(-c2ccccc2)c1C(F)(F)F | 2.67 | – | IC50 (HEPG2TOX_HILL_SLOPE 8.4, HEPG2TOX_R_SQUARED 0.935, PBLUC_HILL_SLOPE 10.9, PBLUC_R_SQUARED 0.166, read-out: LUCIFERASE INFECTION ASSAY - IC50): 2.19 µM |
| Cc1nc(-c2ccccn2)nc(N(C)Cc2ccccc2)c1Cl | 3.5 | – | IC50 (PBLUC_HILL_SLOPE 72.3, PBLUC_R_SQUARED 0.385, read-out: LUCIFERASE INFECTION ASSAY - IC50): 3.4 µM |
| Cc1cc(Oc2ccc(-c3ccccc3)cc2)nc(C)n1 | > 10 | > 10 | – |
| CCC(C)(C)c1ccc(Oc2ccc(NC(=O)c3ccc(OC(F)F)c(OC)c3)cc2)cc1 | > 10 | – | IC50 (HEPG2TOX_HILL_SLOPE 5.1, HEPG2TOX_R_SQUARED 0.781, PBLUC_HILL_SLOPE 1.15, PBLUC_R_SQUARED 0.697, read-out: LUCIFERASE INFECTION ASSAY - IC50): 2.6 µM |
| Cc1cc(C(=O)CSc2nnc3n2CCCCC3)c(C)n1-c1ccccc1 | > 10 | – | IC50 (FFLUC_HILL_SLOPE 0.849, FFLUC_R_SQUARED 0.0339, PBLUC_HILL_SLOPE 12.7, PBLUC_R_SQUARED 0.127, read-out: LUCIFERASE INFECTION ASSAY - IC50): 9.31 µM |
| Brc1ccc(-c2cc(-c3ccccc3)cc(-c3ccccc3)n2)cc1 | > 8.54 | > 8.54 | – |
| CS(=O)(=O)c1sc(NC(=O)Nc2ccc(Cl)cc2)c2c1C=CCC2 | > 8.62 | > 8.62 | – |
| COc1ccc2[nH]cc(CCNC(=O)c3ccc(-c4cccc(NC(C)=O)c4)nc3NCc3cccnc3)c2c1 | 5.13 | – | IC50 (FFLUC_HILL_SLOPE 1.54, FFLUC_R_SQUARED 0.292, HEPG2TOX_HILL_SLOPE 0.912, HEPG2TOX_R_SQUARED 0.95, PBLUC_HILL_SLOPE 1.88, PBLUC_R_SQUARED 0.271, read-out: LUCIFERASE INFECTION ASSAY - IC50): 1.59 µM |
| Cc1onc(-c2ccccc2Cl)c1C(=O)ON=C1C2CC3CC(C2)CC1C3 | > 8.57 | – | IC50 (PBLUC_HILL_SLOPE 2.42, PBLUC_R_SQUARED 0.273, read-out: LUCIFERASE INFECTION ASSAY - IC50): 5.03 µM |
| C(=N\c1ccccc1-n1cccc1)/c1cnc(-c2ccccc2)[nH]1 | > 10.6 | – | IC50 (PBLUC_HILL_SLOPE 8.03, PBLUC_R_SQUARED 0.709, read-out: LUCIFERASE INFECTION ASSAY - IC50): > 10.6 µM |
| O=C(NCc1cn(-c2ccccc2)nc1-c1ccc(Cl)s1)c1ccccc1C(F)(F)F | > 10 | – | IC50 (HEPG2TOX_HILL_SLOPE 3.63, HEPG2TOX_R_SQUARED 0.948, PBLUC_HILL_SLOPE 1.32, PBLUC_R_SQUARED 0.654, read-out: LUCIFERASE INFECTION ASSAY - IC50): 2.44 µM |
